Data reported in patent US20210106579A1, “AMELIORATION OF COGNITIVE AND MOTOR DEFICITS ASSOCIATED WITH ALZHEIMER'S” (Neuralstem, Inc., priority 2018, published 2021).

Legend:
5XFAD mice [1] = assay: Anxiety: time spent on the edge of an inverted beaker; type: in vivo, mouse; conditions: FIG. 8
Procedure: (§1) A mouse model of Alzheimer's disease obtained from Jackson Laboratory was used in this study. […] Wild type control B6SJLF1/J mice were used. 5XFAD mice developed cognitive impairments at 4-5 months of age. Four groups of mice were employed, 15 mice per group, a wild type control administered vehicle; a wild type control administered NSI-189 as the phosphate salt administered orally at a level of 30 mg/kg per day and 5XFAD mice administered vehicle or administered NSI-189 as the phosphate salt orally also at 30 mg/kg/day (of the organic moiety). NSI-189 is of Formula 2 wherein R^1 is isoamyl. The treatment began at 15 weeks and was maintained for 12 weeks with measurements made after 6 weeks and 12 weeks.
The time spent on the edge of an inverted beaker is used to assess anxiety, and the lower the time the more the anxious the mouse.

5XFAD mice [2] = assay: Object recognition test (short term memory) in Alzheimer's mouse model; type: in vivo; conditions: 30 mg/kg/day oral, 6 weeks of treatment, FIG. 5
Procedure: as §1
The object recognition test is also described in King, M. R., et al. (supra). This is based on a concept that the mice will explore a novel object for a longer time than a familiar object. Two identical objects are placed equal distance from each other and from the side of a transparent box and mice are given 10 minutes to achieve 30 seconds of exploration of the two objects after which they are placed back in their home cage. […] The time that the mouse spends exploring the familiar and novel object is recorded and mice with normal cognitive function typically spend more time with a novel object.

5XFAD mice [3] = assay: Barnes maze test (learning and memory retention) in Alzheimer's mouse model; type: in vivo; conditions: 30 mg/kg/day oral; for Memory retention (Barnes maze, retest after two days): 5XFAD mice
Procedure: as §1
The Barnes maze test is described in King, M. R., et al., J. Neurosc. Res. (supra). The Barnes maze consists of a brightly lit, circular, white platform with 20 holes with equidistant spacing around the periphery. An escape box is placed beneath one of the holes marked by a visual clue. Before testing begins, the mouse is placed in the center of the platform and allowed to explore until either it finds the escape box or five minutes has elapsed. The time to locate the escape box is then recorded at the end of the session, the mouse is left in, or placed in, the escape box for an additional minute.
This system is used to test both learning and memory. To test learning, the mouse was placed in the maze for five consecutive days to ascertain whether the time required to find the escape box was decreased, which would indicate learning. To test memory retention, a subsequent period of two days was allowed to elapse and the mouse was retested to ascertain whether a decreased time in finding the escape box was found.

5XFAD mice [4] = assay: Learning Rota-Rod test (motor skills and learning) in Alzheimer's mouse model; type: in vivo; conditions: 30 mg/kg/day oral
Procedure: as §1
The Rota-Rod test also is described in King, et al. (supra). Rota-Rod is marketed by Stoelting Company, Wood Dale, Ill. This is a rod that rotates accelerating from 4-40 rpm over five minutes and the amount of time spent on the rod before loss of balance is recorded over three trials. This measures both motor skills, and if conducted over a period of days, it measures learning.

## CC(C)CCNc1ncccc1C(=O)N1CCN(Cc2ccccc2)CC1 [NSI-189]
5XFAD mice [1]; control and 5XFAD mice at 7 months (12 weeks of treatment)
  Anxiety (time spent on the edge of an inverted beaker): partially reduced the anxiety in both
5XFAD mice [1]; control and 5XFAD mice at five months (6 weeks of treatment)
  Anxiety (time spent on the edge of an inverted beaker): did not affect either group
5XFAD mice [2]
  Recognition index (object recognition test): improved the recognition index of 5XFAD mice
5XFAD mice [3]; 5XFAD mice (7 month old), 12 weeks of treatment, FIG. 3
  Learning (Barnes maze): amelioration of worsened learning deficit
5XFAD mice [3]; 6 weeks of treatment, FIG. 2
  Memory retention (Barnes maze, retest after two days): improved memory
5XFAD mice [3]; 12 weeks of treatment, FIG. 4
  Memory retention (Barnes maze, retest after two days): improvement of memory retention
5XFAD mice [3]; control and 5XFAD mice, 6 weeks of treatment, FIG. 1
  Learning (Barnes maze, time to find escape box over five consecutive days): appeared not to affect the learning curve of either group
5XFAD mice [4]; 5XFAD mice, 6 weeks of treatment, FIG. 7
  Motor skill at the beginning and learning (time on Rota-Rod): improves both the motor skill exhibited at the beginning and learning even over control
5XFAD mice [4]; wild type control mice, statement covers the behavioural tests
  Behavior of control mice: In no case did NSI-189 affect the behavior of control mice
